# Experimental data: patent publication US20210318318A1, “Kinase Activity In Tumors” (Institute For Cancer Research d/b/a The Research Institute …, priority 2018, published 2021)
# Assays:
# AAK1 = molecular target: T1, AAK1 (Homo sapiens, UniProt Q2M2I8); test: MIB/MS kinome profiling of inhibitor-treated OVSAHO cells; format: cell-based; conditions: 2 μM, 4 hours
# T1 construct: endogenous in cells; host or cells: OVSAHO
# Procedure: (§1) OVSAHO cells were treated with 2 μM of inhibitor for 4 hours and analyzed by MIB/MS. Scatterplot depicts difference in kinase MIB-binding of drug treated relative to control DMSO as determined by Students T-test.
# (§2) MIB-based kinome profiling was performed on several of these molecules in HGSOC cells to determine kinome-wide inhibition profiles.
# (§3) Experiments using MIB/MS were performed as previously described (Duncan et al., Cell, 2012, 149, 307-321; and Kurimchak et al., Cell Reports, 2016, 16, 1273-1286). Briefly, cells or tumors were lysed on ice in buffer containing 50 mM HEPES (pH 7.5), 0.5% Triton X-100, 150 mM NaCl, 1 mM EDTA, 1 mM EGTA, 10 mM sodium fluoride, 2.5 mM sodium orthovanadate, 1× protease inhibitor cocktail (Roche), and 1% each of phosphatase inhibitor cocktails 2 and 3 (Sigma). Particulate was removed by centrifugation of lysates at 13,000 rpm for 10 minutes at 4° C. and filtration through 0.2 μm syringe filters. Protein concentrations were determined by BCA analysis (Thermo). To compare kinome signatures within and across such large sample sizes, a super-SILAC method was designed (Neubert et al., Nat. Meth., 2010, 7, 361-362) consisting of a cocktail of cancer cell lines that encompasses the activity of the “cancer kinome” to be used as a control for individual samples. Five cancer cell lines were selected from the NCI-60 panel (UACC257, MOLT4, COL0205, ACHN and PC3) that differed in their origin, gene expression patterns and mutation status. The cancer cell lines were labeled using SILAC and mixed equally providing a diverse SILAC ([^13C6,^15N4] arginine (Arg^10) and […] (Lys^8)) heavy kinome reference standard (HKS) to be used repeatedly in kinome profiling assays. An equal amount of the HKS was added to the non-labeled sample (cell, tumor or normal tissue) providing a quantitative strategy to compare kinome activity/levels across samples, amongst treatments and, importantly, across time. Endogenous kinases were isolated by flowing lysates over kinase inhibitor-conjugated Sepharose beads (purvalanol B, VI16832, PP58 and CTx-0294885 beads were used) in 10 ml gravity-flow columns. After 2×10 ml column washes in high-salt buffer and 1×10 ml wash in low-salt buffer (containing 50 mM HEPES (pH 7.5), 0.5% Triton X-100, 1 mM EDTA, 1 mM EGTA, and 10 mM sodium fluoride, and 1M NaCl or 150 mM NaCl, respectively), retained kinases were eluted from the column by boiling in 2×500 μL of 0.5% SDS, 0.1 M TrisHCl (pH 6.8), and 1% 2-mercaptoethanol. Eluted peptides were reduced by incubation with 5 mM DTT at 60° C. for 25 minutes, alkylated with 20 mM iodoacetamide at room temperature for 30 minutes in the dark and alkylation was quenched with DTT. Samples were concentrated to approximately 100 μL with Millipore 10 kD cutoff spin concentrators. Detergent was removed by chloroform/methanol extraction, and the protein pellet was resuspended in 100 mM ammonium bicarbonate and digested with sequencing-grade modified trypsin (Promega) overnight at 37° C. […]
# (§4) Proteolytic peptides were resuspended in 0.1% formic acid and separated with a Thermo RSLC Ultimate 3000 on a Thermo Easy-Spray C18 PepMap 75 μm×50 cm C-18 2 μm column with a 240 minute gradient of 4-25% acetonitrile with 0.1% formic acid at 300 nL/min and 50° C. Eluted peptides were analyzed by a Thermo Q Exactive plus mass spectrometer utilizing a top 15 methodology in which the 15 most intense peptide precursor ions were subjected to fragmentation. […]
# CDK8 = molecular target: T2, CDK8 (Homo sapiens, UniProt P49336); test: as above; format: cell-based; conditions: 2 μM, 4 hours
# T2 construct: endogenous in cells; host or cells: OVSAHO
# T2 sequence (P49336 whole entry): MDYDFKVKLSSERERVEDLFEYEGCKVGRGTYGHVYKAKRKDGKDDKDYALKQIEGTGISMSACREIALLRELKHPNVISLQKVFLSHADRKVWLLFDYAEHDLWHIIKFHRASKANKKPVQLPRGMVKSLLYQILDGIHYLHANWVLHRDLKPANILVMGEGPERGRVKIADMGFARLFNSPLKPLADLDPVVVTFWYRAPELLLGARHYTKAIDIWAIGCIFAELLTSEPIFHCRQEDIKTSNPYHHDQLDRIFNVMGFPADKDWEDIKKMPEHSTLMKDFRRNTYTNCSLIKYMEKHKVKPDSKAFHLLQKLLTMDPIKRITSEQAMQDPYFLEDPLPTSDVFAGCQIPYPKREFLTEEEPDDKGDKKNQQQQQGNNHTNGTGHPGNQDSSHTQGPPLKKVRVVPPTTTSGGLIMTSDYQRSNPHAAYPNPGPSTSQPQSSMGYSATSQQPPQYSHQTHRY
# T2 sequence (P24863 whole entry partner): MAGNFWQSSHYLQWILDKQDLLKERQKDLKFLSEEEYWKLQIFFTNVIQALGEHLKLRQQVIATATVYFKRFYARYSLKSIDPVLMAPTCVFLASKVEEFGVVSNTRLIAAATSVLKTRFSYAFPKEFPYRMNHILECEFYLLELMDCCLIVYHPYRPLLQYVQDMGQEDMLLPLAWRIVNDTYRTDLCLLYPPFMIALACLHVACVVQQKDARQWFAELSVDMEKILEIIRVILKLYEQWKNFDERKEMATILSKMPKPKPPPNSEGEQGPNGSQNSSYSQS
# Procedure: as §1, §2, §3, §4
# PRCKD = molecular target: T3, PRCKD (Homo sapiens, UniProt Q05655); test: as above; format: cell-based; conditions: 2 μM, 4 hours
# T3 construct: endogenous in cells; host or cells: OVSAHO
# T3 sequence (Q05655 whole entry): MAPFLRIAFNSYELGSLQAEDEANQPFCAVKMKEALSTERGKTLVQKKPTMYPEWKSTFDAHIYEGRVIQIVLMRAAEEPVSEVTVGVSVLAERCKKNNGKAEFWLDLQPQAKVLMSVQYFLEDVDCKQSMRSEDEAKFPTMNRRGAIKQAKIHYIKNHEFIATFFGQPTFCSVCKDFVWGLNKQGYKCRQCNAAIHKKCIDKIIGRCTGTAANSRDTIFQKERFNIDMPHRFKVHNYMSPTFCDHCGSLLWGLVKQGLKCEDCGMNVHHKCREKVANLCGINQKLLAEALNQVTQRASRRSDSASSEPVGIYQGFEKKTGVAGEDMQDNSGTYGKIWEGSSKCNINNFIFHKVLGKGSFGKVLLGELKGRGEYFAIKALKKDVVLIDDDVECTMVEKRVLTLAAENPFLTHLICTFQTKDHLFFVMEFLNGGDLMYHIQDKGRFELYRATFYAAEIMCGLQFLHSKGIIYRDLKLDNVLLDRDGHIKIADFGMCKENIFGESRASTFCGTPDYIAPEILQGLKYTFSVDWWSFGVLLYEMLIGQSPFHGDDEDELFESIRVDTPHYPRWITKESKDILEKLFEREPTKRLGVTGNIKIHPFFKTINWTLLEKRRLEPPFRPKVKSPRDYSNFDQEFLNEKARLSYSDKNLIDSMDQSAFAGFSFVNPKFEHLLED
# Procedure: as §1, §2, §3, §4
# CLK2 = molecular target: T4, CLK2 (Homo sapiens, UniProt P49760); test: as above; format: cell-based; conditions: 2 μM, 4 hours
# T4 construct: endogenous in cells; host or cells: OVSAHO
# T4 sequence (P49760 whole entry): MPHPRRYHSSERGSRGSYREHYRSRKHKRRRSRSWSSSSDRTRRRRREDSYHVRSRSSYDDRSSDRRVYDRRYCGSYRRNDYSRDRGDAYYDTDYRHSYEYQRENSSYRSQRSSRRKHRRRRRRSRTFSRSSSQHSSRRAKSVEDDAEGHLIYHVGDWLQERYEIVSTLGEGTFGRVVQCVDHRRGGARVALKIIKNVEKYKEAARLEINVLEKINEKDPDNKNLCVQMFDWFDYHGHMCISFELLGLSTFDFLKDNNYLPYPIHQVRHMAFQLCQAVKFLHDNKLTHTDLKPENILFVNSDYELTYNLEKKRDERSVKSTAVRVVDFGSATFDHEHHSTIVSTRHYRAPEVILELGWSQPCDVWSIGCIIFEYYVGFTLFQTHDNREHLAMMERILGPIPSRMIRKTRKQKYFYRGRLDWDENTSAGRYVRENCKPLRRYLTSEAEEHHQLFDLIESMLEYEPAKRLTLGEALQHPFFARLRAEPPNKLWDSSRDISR
# Procedure: as §1, §2, §3, §4
# COV362 cells = test: Migration assay (xCELLigence RTCA); format: cell-based, human; conditions: 1 μM, 24 hour period
# Procedure: COV362 cells were treated with 1 μM of A-674563 or DMSO and migration monitored over a 24 hour period using the xCELLigence Real-Time Cell Analyzer (RTCA).
# Cell migration assays were performed using the xCELLigence RTCA DP Instrument (ACEA Biosciences) in a CIM-Plate 16 (ACEA Biosciences). Complete medium was added to the lower chambers of the CIM-Plate (or serum free medium for negative control). In the upper chambers, 30 μL serum free medium was added to each well and the CIM-Plate was placed in the instrument to equilibrate for 1 hr at 37° C. Following this equilibration step, a background measurement was taken. The CIM-Plate was removed from the instrument, and COV362 cells were added to the upper chambers at 50,000 cells per well in serum free medium. The CIM-Plate was left at 25° C. for 30 minutes to allow the cells to settle at the bottom of the well. The plate was then returned to the instrument, and cell index reads were taken once every 15 minutes for 24 hours. For the siRNA experiment, the cells were transfected 24 hours prior to the start of the assay. For the A-674563 experiment, cells were pretreated with 1 μM inhibitor or DMSO 24 hours prior, and both upper and lower chambers contained 1 μM inhibitor or DMSO.
# T1 sequence (Q2M2I8 whole entry): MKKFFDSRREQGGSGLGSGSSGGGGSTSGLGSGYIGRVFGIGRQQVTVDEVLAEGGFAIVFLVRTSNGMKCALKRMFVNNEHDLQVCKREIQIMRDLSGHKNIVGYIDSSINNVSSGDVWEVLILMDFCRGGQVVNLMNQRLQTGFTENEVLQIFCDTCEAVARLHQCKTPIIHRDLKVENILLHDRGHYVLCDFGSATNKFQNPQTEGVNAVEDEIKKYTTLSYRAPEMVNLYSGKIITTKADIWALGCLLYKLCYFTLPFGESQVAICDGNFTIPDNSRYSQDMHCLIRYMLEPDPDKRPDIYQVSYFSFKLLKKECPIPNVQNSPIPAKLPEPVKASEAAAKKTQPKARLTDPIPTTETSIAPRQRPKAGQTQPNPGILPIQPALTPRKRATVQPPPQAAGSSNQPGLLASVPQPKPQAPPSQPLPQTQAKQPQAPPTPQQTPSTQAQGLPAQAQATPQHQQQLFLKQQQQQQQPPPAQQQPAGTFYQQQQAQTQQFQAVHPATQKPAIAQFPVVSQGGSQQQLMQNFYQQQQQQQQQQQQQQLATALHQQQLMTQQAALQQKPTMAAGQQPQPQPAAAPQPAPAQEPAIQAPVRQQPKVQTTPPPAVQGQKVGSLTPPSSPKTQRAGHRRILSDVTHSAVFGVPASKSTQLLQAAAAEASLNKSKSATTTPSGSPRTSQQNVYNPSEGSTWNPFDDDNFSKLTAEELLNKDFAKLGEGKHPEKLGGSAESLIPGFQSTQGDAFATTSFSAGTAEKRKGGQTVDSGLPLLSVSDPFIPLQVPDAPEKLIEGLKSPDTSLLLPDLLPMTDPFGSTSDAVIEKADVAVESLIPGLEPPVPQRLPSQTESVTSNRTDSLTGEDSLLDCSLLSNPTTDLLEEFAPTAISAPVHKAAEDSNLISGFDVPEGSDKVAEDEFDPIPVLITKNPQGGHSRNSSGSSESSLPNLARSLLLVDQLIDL
compound,measurement,setting,value
Cc1[nH]nc2ccc(-c3cncc(OC[C@@H](N)Cc4ccccc4)c3)cc12 [A-674563],MIB-binding of AAK1,AAK1,inhibited
same,MIB-binding of CDK8,CDK8,inhibited
same,MIB-binding of PRCKD,PRCKD,inhibited
same,MIB-binding of CLK2,CLK2,inhibited
same,cell migration,COV362 cells,reduced cell migration
